# Results published in US20220168427A1 (Ranok Therapeutics (Hangzhou) Co. Ltd., priority 2019, published 2022).
# Tests used:
# HSP90α = HSP90α (Homo sapiens, UniProt P07900); assay: HSP90α Binding Fluorescent Polarization (FP) Assay; settings: competition with FITC-geldanamycin; read-out: HSP90 Binding Potency
# Summary of the method: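 Duplicate wells held BSA buffer, FITC-geldanamycin tracer, compound (3-fold dilution plate spanning 40 μM–2.0 nM) and recombinant protein diluted to 28 μg/ml before addition. Polarization read at 30, 60 and 120 min, 25 °C. Background-corrected mP values gave IC50 through a four-parameter inhibitor-response fit.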
# BRD4 (BD1+BD2) = target: T1, BRD4 (BD1+BD2) (Homo sapiens, UniProt O60885); settings: read-out: BRD4 Binding Potency
# T1 construct: 1.8 μg/ml recombinant BRD4 (BD1+BD2 domains) protein
# MV4-11 cells = assay: MV4-11 Cell Cytotoxicity Assay; type: cell-based, human; settings: human, MV4-11 cells, CCK-8
# Text: % Inhibition=100−(D−B)/(S−B)*100%.
# S: The absorbance of the maximum (cells with DMSO)
# B: The absorbance of the minimum (medium with DMSO)
structure (smiles),measurement,setting,value
"Cc1sc2c(c1C)C(c1ccc(Cl)cc1)=N[C@@H](CC(=O)N1CCC(N3CCN(c4ccc(-n5c(O)nnc5-c5cc(C(C)C)c(O)cc5O)cc4)CC3)CC1)c1nnc(C)n1-2 [Compound 43, 2-((6S)-4-(4-chlorophenyl)-2,3,9-trimethyl-6H-thieno[3,2-f][1,2,4]triazolo[4,3-a][1,4]diazepin-6-yl)-1-(4-(4-(4-(3-(2,4-dihydroxy-5-isopropylphenyl)-5-hydroxy-4H-1,2,4-triazol-4-yl)phenyl)piperazin-1-yl)piperidin-1-yl)ethanone, trifluoroacetic acid]",IC50,HSP90α,0.1 to 1 µM
same,IC50,BRD4 (BD1+BD2),0.1 to 1 µM
same,IC50 at 72 h,MV4-11 cells,< 0.1 µM
"Cc1sc2c(c1C)C(c1ccc(Cl)cc1)=N[C@@H](CC(=O)N1CCC(Cc3ccc(CN(C)Cc4ccc(-n5c(O)nnc5-c5cc(C(C)C)c(O)cc5O)cc4)cc3)CC1)c1nnc(C)n1-2 [Compound 83, (S)-2-(4-(4-chlorophenyl)-2,3,9-trimethyl-6H-thieno[3,2-f][1,2,4]triazolo[4,3-a][1,4]diazepin-6-yl)-1-(4-(4-(((4-(3-(2,4-dihydroxy-5-isopropylphenyl)-5-hydroxy-4H-1,2,4-triazol-4-yl)benzyl)(methyl)amino)methyl)benzyl)piperidin-1-yl)ethan-1-one, trifluoroacetic acid]",IC50,HSP90α,0.1 to 1 µM
same,IC50,BRD4 (BD1+BD2),> 1 µM
same,IC50 at 72 h,MV4-11 cells,< 0.1 µM
"Cc1sc2c(c1C)C(c1ccc(Cl)cc1)=N[C@@H](CC(=O)NCCc1ccc(CN3CCC(Cc4ccc(-n5c(O)nnc5-c5cc(C(C)C)c(O)cc5O)cc4)CC3)cc1)c1nnc(C)n1-2 [Compound 98, (S)-2-(4-(4-chlorophenyl)-2,3,9-trimethyl-6H-thieno[3,2-f][1,2,4]triazolo[4,3-a][1,4]diazepin-6-yl)-N-(4-((4-(4-(3-(2,4-dihydroxy-5-isopropylphenyl)-5-hydroxy-4H-1,2,4-triazol-4-yl)benzyl)piperidin-1-yl)methyl)phenethyl)acetamide, trifluoroacetic acid]",IC50,HSP90α,0.1 to 1 µM
same,IC50,BRD4 (BD1+BD2),0.1 to 1 µM
same,IC50 at 72 h,MV4-11 cells,< 0.1 µM
"Cc1sc2c(c1C)C(c1ccc(Cl)cc1)=N[C@@H](CC(=O)N1CCN(Cc3ccc4c(c3)CN(C(=O)c3ccc(O)cc3O)C4)CC1)c1nnc(C)n1-2 [Compound 143, (S)-2-(4-(4-chlorophenyl)-2,3,9-trimethyl-6H-thieno[3,2-f][1,2,4]triazolo[4,3-a][1,4]diazepin-6-yl)-1-(4-((2-(2,4-dihydroxybenzoyl)isoindolin-5-yl)methyl)piperazin-1-yl)ethan-1-one]",IC50,HSP90α,0.1 to 1 µM
same,IC50,BRD4 (BD1+BD2),> 1 µM
same,IC50 at 72 h,MV4-11 cells,> 1 µM
"CCCc1cc(C(=O)N2Cc3ccc(CN4CCN(C(=O)C[C@@H]5N=C(c6ccc(Cl)cc6)c6c(sc(C)c6C)-n6c(C)nnc65)CC4)cc3C2)c(O)cc1O [Compound 145, (S)-2-(4-(4-chlorophenyl)-2,3,9-trimethyl-6H-thieno[3,2-f][1,2,4]triazolo[4,3-a][1,4]diazepin-6-yl)-1-(4-((2-(2,4-dihydroxy-5-propylbenzoyl)isoindolin-5-yl)methyl)piperazin-1-yl)ethan-1-one]",IC50,HSP90α,0.1 to 1 µM
same,IC50,BRD4 (BD1+BD2),> 1 µM
same,IC50 at 72 h,MV4-11 cells,> 1 µM
"Cc1cc(-c2nnc(C(=O)NCC(F)(F)F)n2-c2ccc(CN3CCN(CC4CCN(C(=O)C[C@@H]5N=C(c6ccc(Cl)cc6)c6c(sc(C)c6C)-n6c(C)nnc65)CC4)CC3)cc2)c(O)cc1O [Compound 15, 4-(4-((4-((1-(2-((6S)-4-(4-chlorophenyl)-2,3,9-trimethyl-6H-thieno[3,2-f][1,2,4]triazolo[4,3-a][1,4]diazepin-6-yl)acetyl)piperidin-4-yl)methyl)piperazin-1-yl)methyl)phenyl)-5-(2,4-dihydroxy-5-methylphenyl)-N-(2,2,2-trifluoroethyl)-4H-1,2,4-triazole-3-carboxamide, trifluoroacetic acid]",IC50,HSP90α,0.1 to 1 µM
same,IC50,BRD4 (BD1+BD2),> 1 µM
same,IC50 at 72 h,MV4-11 cells,< 0.1 µM
"Cc1sc2c(c1C)C(c1ccc(Cl)cc1)=N[C@@H](CC(=O)N(C)CCOc1ccc(CN(C)Cc3ccc(-n4c(C(=O)NCC(F)(F)F)nnc4-c4cc(C(C)C)c(O)cc4O)cc3)cc1)c1nnc(C)n1-2 [Compound 101, (S)-4-(4-(((4-(2-(2-(4-(4-chlorophenyl)-2,3,9-trimethyl-6H-thieno[3,2-f][1,2,4]triazolo[4,3-a][1,4]diazepin-6-yl)-N-methylacetamido)ethoxy)benzyl)(methyl)amino)methyl)phenyl)-5-(2,4-dihydroxy-5-isopropylphenyl)-N-(2,2,2-trifluoroethyl)-4H-1,2,4-triazole-3-carboxamide, formic acid]",IC50,HSP90α,> 1 µM
same,IC50,BRD4 (BD1+BD2),> 1 µM
same,IC50 at 72 h,MV4-11 cells,< 0.1 µM
"CCc1cc(-c2nnc(O)n2-c2ccc(CN3CCN(CC4CCN(CC[C@@H]5N=C(c6ccc(Cl)cc6)c6c(sc(C)c6C)-n6c(C)nnc65)CC4)CC3)cc2)c(O)cc1O [Compound 2, 4-(4-(4-((4-((1-(2-((6S)-4-(4-chlorophenyl)-2,3,9-trimethyl-6H-thieno[3,2-f][1,2,4]triazolo[4,3-a][1,4]diazepin-6-yl)ethyl)piperidin-4-yl)methyl)piperazin-1-yl)methyl)phenyl)-5-hydroxy-4H-1,2,4-triazol-3-yl)-6-ethylbenzene-1,3-diol, trifluoroacetic acid]",IC50,HSP90α,< 0.1 µM
same,IC50,BRD4 (BD1+BD2),> 1 µM
same,IC50 at 72 h,MV4-11 cells,0.1 to 1 µM
"Cc1sc2c(c1C)C(c1ccc(Cl)cc1)=N[C@@H](CC(=O)NCCOCCOCCOc1ccc(-n3c(S)nnc3-c3cc(C(C)C)c(O)cc3O)cc1)c1nnc(C)n1-2 [Compound 34, (S)-2-(4-(4-chlorophenyl)-2,3,9-trimethyl-6H-thieno[3,2-f][1,2,4]triazolo[4,3-a][1,4]diazepin-6-yl)-N-(2-(2-(2-(4-(3-(2,4-dihydroxy-5-isopropylphenyl)-5-mercapto-4H-1,2,4-triazol-4-yl)phenoxy)ethoxy)ethoxy)ethyl)acetamide]",IC50,HSP90α,> 1 µM
same,IC50,BRD4 (BD1+BD2),> 1 µM
same,IC50 at 72 h,MV4-11 cells,0.1 to 1 µM
"Cc1sc2c(c1C)C(c1ccc(Cl)cc1)=N[C@@H](CC(=O)NCCOc1ccc(-n3c(S)nnc3-c3cc(C(C)C)c(O)cc3O)cc1)c1nnc(C)n1-2 [Compound 32, (S)-2-(4-(4-chlorophenyl)-2,3,9-trimethyl-6H-thieno[3,2-f][1,2,4]triazolo[4,3-a][1,4]diazepin-6-yl)-N-(2-(4-(3-(2,4-dihydroxy-5-isopropylphenyl)-5-mercapto-4H-1,2,4-triazol-4-yl)phenoxy)ethyl)acetamide]",IC50,HSP90α,0.1 to 1 µM
same,IC50,BRD4 (BD1+BD2),> 1 µM
same,IC50 at 72 h,MV4-11 cells,0.1 to 1 µM
"Cc1sc2c(c1C)C(c1ccc(Cl)cc1)=N[C@@H](CCN(C)CCOc1ccc(-n3c(O)nnc3-c3cc(C(C)C)c(O)cc3O)cc1)c1nnc(C)n1-2 [Compound 65, (S)-4-(4-(4-(2-((2-(4-(4-chlorophenyl)-2,3,9-trimethyl-6H-thieno[3,2-f][1,2,4]triazolo[4,3-a][1,4]diazepin-6-yl)ethyl)(methyl)amino)ethoxy)phenyl)-5-hydroxy-4H-1,2,4-triazol-3-yl)-6-isopropylbenzene-1,3-diol]",IC50,HSP90α,0.1 to 1 µM
same,IC50,BRD4 (BD1+BD2),> 1 µM
same,IC50 at 72 h,MV4-11 cells,0.1 to 1 µM
COc1cccc(-c2cc(C(=O)Nc3ccc(-c4ccc(OC5CCN(C)CC5)cc4OCCN(C)CC[C@@H]4N=C(c5ccc(Cl)cc5)c5c(sc(C)c5C)-n5c(C)nnc54)cc3)ccc2OC)c1 [Compound 135],IC50,HSP90α,> 1 µM
same,IC50,BRD4 (BD1+BD2),0.1 to 1 µM
same,IC50 at 72 h,MV4-11 cells,0.1 to 1 µM
"Cc1sc2c(c1C)C(c1ccc(Cl)cc1)=N[C@@H](CC(=O)N1CCC(CN3CCN(Cc4ccc(-n5c(C(=O)NCCN6CCCCC6)nnc5-c5ccc(O)cc5O)cc4)CC3)CC1)c1nnc(C)n1-2 [Compound 110, (S)-4-(4-((4-((1-(2-(4-(4-chlorophenyl)-2,3,9-trimethyl-6H-thieno[3,2-f][1,2,4]triazolo[4,3-a][1,4]diazepin-6-yl)acetyl)piperidin-4-yl)methyl)piperazin-1-yl)methyl)phenyl)-5-(2,4-dihydroxyphenyl)-N-(2-(piperidin-1-yl)ethyl)-4H-1,2,4-triazole-3-carboxamide, trifluoroacetic acid]",IC50,HSP90α,0.1 to 1 µM
same,IC50,BRD4 (BD1+BD2),< 0.1 µM
same,IC50 at 72 h,MV4-11 cells,0.1 to 1 µM
"Cc1sc2c(c1C)C(c1ccc(Cl)cc1)=N[C@@H](CC(=O)N1CCC(CCN[C@@H](C)C(=O)N[C@H](C(=O)N3CCC[C@H]3C(=O)Nc3snnc3-c3ccccc3)C3CCCCC3)CC1)c1nnc(C)n1-2 [Compound 130, (S)-1-((S)-2-((S)-2-((2-(1-(2-((S)-4-(4-chlorophenyl)-2,3,9-trimethyl-6H-thieno[3,2-f][1,2,4]triazolo[4,3-a][1,4]diazepin-6-yl)acetyl)piperidin-4-yl)ethyl)amino)propanamido)-2-cyclohexylacetyl)-N-(4-phenyl-1,2,3-thiadiazol-5-yl)pyrrolidine-2-carboxamide]",IC50,HSP90α,> 1 µM
same,IC50,BRD4 (BD1+BD2),0.1 to 1 µM
same,IC50 at 72 h,MV4-11 cells,0.1 to 1 µM
"Cc1sc2c(c1C)C(c1ccc(Cl)cc1)=N[C@@H](CC(=O)NCC(=O)NCc1ccc(-n3c(O)nnc3-c3cc(C(C)C)c(O)cc3O)cc1)c1nnc(C)n1-2 [Compound 57, 2-((6S)-4-(4-chlorophenyl)-2,3,9-trimethyl-6H-thieno[3,2-f][1,2,4]triazolo[4,3-a][1,4]diazepin-6-yl)-N-(2-((4-(3-(2,4-dihydroxy-5-isopropylphenyl)-5-hydroxy-4H-1,2,4-triazol-4-yl)benzyl)amino)-2-oxoethyl)acetamide]",IC50,HSP90α,0.1 to 1 µM
same,IC50,BRD4 (BD1+BD2),0.1 to 1 µM
same,IC50 at 72 h,MV4-11 cells,0.1 to 1 µM
